# Data published in patent publication US7566787B2, “Small molecule cyclin D1 ablative agents” (The Ohio State University, priority 2004, dated 2009).
# pIC50: −log10 of the molar value. Peptide text beside a SMILES is read from it. * marks the point of attachment. Cbz = O=C(OCc1ccccc1)*
# Tested on: MCF-7 cells
# Experiment: MTT cell viability assay
# Assay type: cell-based
# Conditions: Homo sapiens, MCF7, cell viability data, read-out: IC50 for MTT
# Method: Cell viability analysis. The effect of individual test agents on cell viability was assessed by using the MTT [3-(4,5-dimethylthiazol-2-yl)-2,5-diphenyl-2H-tetrazolium bromide] assay in six replicates. Cells were seeded and incubated in 96-well, flat-bottomed plates in DMEM-F12 media with 10% FBS for 24 h, and were exposed to various concentrations of test agents dissolved in DMSO (final DMSO concentration, 0.1%) in 5% FBS-supplemented DMEM-F12 medium. Controls received DMSO vehicle at a concentration equal to that of drug-treated cells. The medium was removed, replaced by 200 μl of 0.5 mg/ml of MTT in 10% FBS-containing RPMI-1640 medium, and cells were incubated in the CO2 incubator at 37° C. for 2 h. Supernatants were removed from the wells, and the reduced MTT dye was solubilized in 200 μl/well DMSO. Absorbance at 570 nm was determined on a plate reader.
row,Structure (SMILES),pIC50
1,CCOC(=O)C(C)(C)C(O)c1ccc(OCC2(C)CCc3c(C)c(OCC=C(C)C)c(C)c(C)c3O2)c(Br)c1 (stereo not drawn) [TG-38],< 4.30
2,CC(C)=CCOc1c(C)c(C)c2c(c1C)CCC(C)(COc1ccc(C(O)C(C)(C)C(=O)O)cc1Br)O2 (stereo not drawn) [TG-39],4.34
3,CCOC(=O)C(=Cc1ccc(OCC2(C)CCc3c(C)c(OCC=C(C)C)c(C)c(C)c3O2)c(Br)c1)C(=O)OCC (stereo not drawn) [TG-41],< 4.30
4,CC(C)=CCOc1c(C)c(C)c2c(c1C)CCC(C)(COc1ccc(C=C(C(=O)O)C(=O)O)cc1Br)O2 (stereo not drawn) [TG-42],< 4.30
5,CC(C)=CCOc1c(C)c(C)c2c(c1C)CCC(C)(COc1ccc(/C=C3\SC(=O)NC3=O)c3ccccc13)O2 (stereo not drawn) [TG-43],4.84
6,COc1cc(/C=C2\SC(=O)NC2=O)cc(Br)c1OCC1(C)CCc2c(C)c(OCC=C(C)C)c(C)c(C)c2O1 (stereo not drawn) [TG-44],4.84
7,CCOc1cc(/C=C2\SC(=O)NC2=O)ccc1OCC1(C)CCc2c(C)c(OCC=C(C)C)c(C)c(C)c2O1 (stereo not drawn) [TG-45],4.89
8,CC(C)=CCOc1c(C)c(C)c2c(c1C)CCC(C)(COc1ccc(/C=C3\SC(=S)NC3=O)c3ccccc13)O2 (stereo not drawn) [TG-46],4.43
9,C=CCOc1c(C)c(C)c2c(c1C)CCC(C)(COc1cccc(/C=C3\SC(=O)NC3=O)c1)O2 (stereo not drawn) [TG-51],4.40
10,C=CCOc1c(C)c(C)c2c(c1C)CCC(C)(COc1c(C)cc(/C=C3\SC(=O)NC3=O)cc1C)O2 (stereo not drawn) [TG-52],4.98
11,C=CCOc1c(C)c(C)c2c(c1C)CCC(C)(COc1ccc(/C=C3\SC(=O)NC3=O)c3ccccc13)O2 (stereo not drawn) [TG-53],4.84
12,C=CCOc1c(C)c(C)c2c(c1C)CCC(C)(COc1c(Br)cc(/C=C3\SC(=O)NC3=O)cc1OC)O2 (stereo not drawn) [TG-54],4.76
13,C=CCOc1c(C)c(C)c2c(c1C)CCC(C)(COc1ccc(/C=C3\SC(=O)NC3=O)cc1OCC)O2 (stereo not drawn) [TG-55],4.77
14,CC(C)=CCOc1c(C)c(C)c2c(c1C)CCC(C)(COc1ccc(/C=C3\SC(=O)NC3=O)cc1Br)O2 (stereo not drawn) [TG-88],4.84

# Tested on: cyclin D1
# Experiment: Western blot analysis of cyclin D1 expression in MCF-7 cells
# Assay type: cell-based, human
# Conditions: 40 μM TG, 30 μM Δ2-TG
# Method: Western Blot Analysis. MCF-7 or MDA-MB-231 cells were seeded in 10% FBS-containing DMEM-F-12 for 24 h and treated with various agents as indicated. After individual treatments for 24 h, both the incubation medium and adherent cells in T-25 or T-75 flasks were scraped and collected by centrifugation at 2,000×g for 10 min. The pellets were recovered, placed on ice, and triturated with 20 to 50 μl of a chilled lysis buffer (M-PER® Mammalian Protein Extraction Reagent, Pierce, Rockford, Ill.) to which was added 1% protease inhibitor cocktail (set III, EMD Biosciences, Inc. San Diego, Calif.). After a 30 min-incubation on ice, the mixture was centrifuge at 16,100×g for 3 min. Two μl of the suspension was taken for protein analysis using the Bradford assay kit (Bio-Rad, Hercules, Calif.). To the remaining solution was added the same volume of 2× SDS-PAGE sample loading buffer (100 mM Tris-HCl, pH 6.8, 4% SDS, 5% β-mercaptoethanol 20% glycerol, and 0.1% bromophenol blue). The mixture was boiled for 10 min. Equal amounts of proteins were loaded onto 10% SDS-PAGE gels. After electrophoresis, protein bands were transferred to nitrocellulose membranes in a semi-dry transfer cell. The transblotted membrane was blocking with TBST [Tris-buffered saline (TBS) containing 0.1% Tween 20] containing 5% nonfat milk for 90 min, and the membrane was incubated with the appropriate primary antibody in TBST-5% nonfat milk at 4° C. overnight. After washing three times with TBST for a total of 45 min, the transblotted membrane was incubated with goat anti-rabbit or anti-mouse IgG-horseradish peroxidase conjugates (diluted 1:1000) for 1 h at room temperature and washed four times with TBST for a total of 1 h. The immunoblots were visualized by enhanced chemiluminescence.
row,Structure (SMILES),time of complete ablation of cyclin D1
1,"Cc1c(C)c2c(c(C)c1O)CCC(C)(COc1ccc(CC3SC(=O)NC3=O)cc1)O2 (stereo not drawn) [TG, troglitazone, reference compound]",24 h

# Same assay, conditions: 24 h, 5% FBS
row,Structure (SMILES),minimum concentration required for the complete ablation of cyclin D1
1,"CC1(COc2ccc(CC3SC(=O)NC3=O)cc2)CCCCC1 (stereo not drawn) [CG, ciglitazone, reference compound]",50 µM
2,"Cc1c(C)c2c(c(C)c1O)CCC(C)(COc1ccc(CC3SC(=O)NC3=O)cc1)O2 (stereo not drawn) [TG, troglitazone, reference compound]",40 µM

# Same assay, conditions: FIG. 8C
row,Structure (SMILES),effect of co-treatment on Δ2-TG-6 cyclin D1 ablation
1,"CC(C)C[C@@H](C=O)NC(=O)[C@H](CC(C)C)NC(=O)[C@H](CC(C)C)NC(=O)OCc1ccccc1 [MG132, reference compound] (Cbz-Leu-Leu-Leu-aldehyde)",could be blocked

# Same assay, conditions: concentrations three orders of magnitude higher than the IC50 in PPARγ binding
row,Structure (SMILES),effect of co-treatment on TG-mediated cyclin D1 down-regulation
1,"O=C(Nc1ccccc1)c1cc([N+](=O)[O-])ccc1Cl [GW9962, reference compound]",did not prevent

# Same assay, conditions: high doses / comparable concentrations
row,Structure (SMILES),effect on cyclin D1 expression
1,"O=C(Nc1ccccc1)c1cc([N+](=O)[O-])ccc1Cl [GW9962, reference compound]",no appreciable effect

# Same assay, conditions: western blot data, read-out: IC50 for WB
row,Structure (SMILES),pIC50
1,CC(C)=CCOc1c(C)c(C)c2c(c1C)CCC(C)(COc1ccc(C(O)C(C)(C)C(=O)O)cc1Br)O2 (stereo not drawn) [TG-39],< 5.12
2,CCOC(=O)C(=Cc1ccc(OCC2(C)CCc3c(C)c(OCC=C(C)C)c(C)c(C)c3O2)c(Br)c1)C(=O)OCC (stereo not drawn) [TG-41],< 5.12
3,CC(C)=CCOc1c(C)c(C)c2c(c1C)CCC(C)(COc1ccc(C=C(C(=O)O)C(=O)O)cc1Br)O2 (stereo not drawn) [TG-42],< 5.12
4,COc1cc(/C=C2\SC(=O)NC2=O)cc(Br)c1OCC1(C)CCc2c(C)c(OCC=C(C)C)c(C)c(C)c2O1 (stereo not drawn) [TG-44],< 5.12
5,C=CCOc1c(C)c(C)c2c(c1C)CCC(C)(COc1ccc(/C=C3\SC(=O)NC3=O)cc1OCC)O2 (stereo not drawn) [TG-55],< 5.12
6,CC(C)=CCOc1c(C)c(C)c2c(c1C)CCC(C)(COc1ccc(/C=C3\SC(=O)NC3=O)cc1Br)O2 (stereo not drawn) [TG-88],< 5.12

# Same assay, conditions: with 40 μM TG or 30 μM Δ2-TG, 24 h
row,Structure (SMILES),effect of co-treatment on TG- and Δ2-TG-induced cyclin D1 ablation
1,"CC(C)C[C@@H](C=O)NC(=O)[C@H](CC(C)C)NC(=O)[C@H](CC(C)C)NC(=O)OCc1ccccc1 [MG132, reference compound] (Cbz-Leu-Leu-Leu-aldehyde)",effective in rescuing
2,"Cn1cc(C2=C(c3ccc(Cl)cc3Cl)C(=O)NC2=O)c2ccccc21 [SB216763, reference compound]",could not rescue
3,"CC[C@H](C)[C@H](NC(=O)[C@H]([C@@H](C)CC)N(C)C(C)=O)C(=O)N[C@H](C(=O)N[C@@H](CC(C)C)C(=O)[C@@]1(C)CO1)[C@@H](C)O [epoxomicin, reference compound]",effective in rescuing
4,"CC(=O)N[C@@H](CSC(=O)[C@]1([C@@H](O)C(C)C)NC(=O)[C@H](C)[C@@H]1O)C(=O)O [lactacystin, reference compound]",effective in rescuing
